Source: PubChem BioAssay AID1963976 (Molecular Pharmacology Branch, DTP, NCI, 2024)

Test system: 435261-313-R-J1-PDC tumor spheroid viability
Assay: Anticancer human tumor 435261-313-R-J1-PDC patient-derived colon adenocarcinoma cell line growth inhibition [PI3K]
Conditions: spheroids with HUVEC and MSC; for IC50: curve of first compound; for viability, T/C: stronger effect = lower value
Method in brief: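 Viability of mixed-cell spheroids was determined after exposure to pairwise combinations, one partner being inavolisib, alpelisib, duvelisib or copanlisib. Highest tested concentration matched clinical Cmax where known and 10 microM where not, descending in half-log steps.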

[1] = second compound 0.0316 µM, first compound 0.0316 µM
[2] = second compound 0.0316 µM, first compound 0.1 µM
[3] = second compound 0.1 µM, first compound 0.0316 µM
[4] = second compound 0.1 µM, first compound 0.1 µM
[5] = second compound 0.316 µM, first compound 0.0316 µM
[6] = second compound 0.316 µM, first compound 0.1 µM
[7] = second compound 1 µM, first compound 0.0316 µM
[8] = second compound 1 µM, first compound 0.1 µM
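Also: spheroids exposed to compounds for 7 days.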

Structure (SMILES): CNC(=O)c1ccc(N2C(=S)N(c3ccc(C#N)c(C(F)(F)F)c3)C(=O)C2(C)C)cc1F + COc1c(OCCCN2CCOCC2)ccc2c3n(c(=NC(=O)c4cnc(N)nc4)nc12)CCN3
- IC50 (second compound 0.00316 µM): 8990 nM
- IC50 (second compound 0.01 µM): < 31.6 nM
- IC50 (second compound 0.0316 µM): < 31.6 nM
- IC50 (second compound 0.1 µM): < 31.6 nM
- IC50 (second compound 0.316 µM): < 31.6 nM
- IC50 (second compound 1 µM): < 31.6 nM
- viability, T/C (second compound 0.00316 µM, first compound 0.0316 µM): 71.2%
- viability, T/C (second compound 0.00316 µM, first compound 0.1 µM): 80.3%
- viability, T/C (second compound 0.00316 µM, first compound 0.316 µM): 40.8%
- viability, T/C (second compound 0.00316 µM, first compound 1 µM): 63.6%
- viability, T/C (second compound 0.00316 µM, first compound 3.16 µM): 66.3%
- viability, T/C (second compound 0.00316 µM, first compound 10 µM): 42.7%
- viability, T/C (second compound 0.01 µM, first compound 0.0316 µM): 33.4%
- viability, T/C (second compound 0.01 µM, first compound 0.1 µM): 46.7%
- viability, T/C (second compound 0.01 µM, first compound 0.316 µM): 51.3%
- viability, T/C (second compound 0.01 µM, first compound 1 µM): 48.2%
- viability, T/C (second compound 0.01 µM, first compound 3.16 µM): 45.4%
- viability, T/C (second compound 0.01 µM, first compound 10 µM): 39.7%
- viability, T/C [1]: 33.8%
- viability, T/C [2]: 29.1%
- viability, T/C (second compound 0.0316 µM, first compound 0.316 µM): 29.9%
- viability, T/C (second compound 0.0316 µM, first compound 1 µM): 27.3%
- viability, T/C (second compound 0.0316 µM, first compound 3.16 µM): 23%
- viability, T/C (second compound 0.0316 µM, first compound 10 µM): 22.4%
- viability, T/C [3]: 16.1%
- viability, T/C [4]: 13.9%
- viability, T/C (second compound 0.1 µM, first compound 0.316 µM): 14.9%
- viability, T/C (second compound 0.1 µM, first compound 1 µM): 15%
- viability, T/C (second compound 0.1 µM, first compound 3.16 µM): 15.4%
- viability, T/C (second compound 0.1 µM, first compound 10 µM): 15.3%
- viability, T/C [5]: 8.96%
- viability, T/C [6]: 8.69%
- viability, T/C (second compound 0.316 µM, first compound 0.316 µM): 7.55%
- viability, T/C (second compound 0.316 µM, first compound 1 µM): 9.53%
- viability, T/C (second compound 0.316 µM, first compound 3.16 µM): 7.67%
- viability, T/C (second compound 0.316 µM, first compound 10 µM): 8.88%
- viability, T/C [7]: 4.12%
- viability, T/C [8]: 4.26%
- viability, T/C (second compound 1 µM, first compound 0.316 µM): 4.87%
- viability, T/C (second compound 1 µM, first compound 1 µM): 4.38%
- viability, T/C (second compound 1 µM, first compound 3.16 µM): 5.02%
- viability, T/C (second compound 1 µM, first compound 10 µM): 5.37%

Structure (SMILES): CC(=O)c1c(C)c2cnc(Nc3ccc(N4CCNCC4)cn3)nc2n(C2CCCC2)c1=O + CC(Nc1ncnc2nc[nH]c12)c1cc2cccc(Cl)c2c(=O)n1-c1ccccc1
- IC50 (second compound 0.0316 µM): > 100 nM
- IC50 (second compound 0.1 µM): > 100 nM
- IC50 (second compound 0.316 µM): > 100 nM
- IC50 (second compound 1 µM): > 100 nM
- IC50 (second compound 3.16 µM): > 100 nM
- IC50 (second compound 10 µM): 34.5 nM
- viability, T/C (second compound 0.0316 µM, first compound 0.000316 µM): 101%
- viability, T/C (second compound 0.0316 µM, first compound 0.001 µM): 125%
- viability, T/C (second compound 0.0316 µM, first compound 0.00316 µM): 74.8%
- viability, T/C (second compound 0.0316 µM, first compound 0.01 µM): 94%
- viability, T/C [1]: 107%
- viability, T/C [2]: 84.1%
- viability, T/C (second compound 0.1 µM, first compound 0.000316 µM): 77.4%
- viability, T/C (second compound 0.1 µM, first compound 0.001 µM): 84%
- viability, T/C (second compound 0.1 µM, first compound 0.00316 µM): 94.5%
- viability, T/C (second compound 0.1 µM, first compound 0.01 µM): 101%
- viability, T/C [3]: 106%
- viability, T/C [4]: 64.9%
- viability, T/C (second compound 0.316 µM, first compound 0.000316 µM): 105%
- viability, T/C (second compound 0.316 µM, first compound 0.001 µM): 72.7%
- viability, T/C (second compound 0.316 µM, first compound 0.00316 µM): 101%
- viability, T/C (second compound 0.316 µM, first compound 0.01 µM): 90.1%
- viability, T/C [5]: 119%
- viability, T/C [6]: 69%
- viability, T/C (second compound 1 µM, first compound 0.000316 µM): 81.7%
- viability, T/C (second compound 1 µM, first compound 0.001 µM): 57.1%
- viability, T/C (second compound 1 µM, first compound 0.00316 µM): 56.6%
- viability, T/C (second compound 1 µM, first compound 0.01 µM): 92.3%
- viability, T/C [7]: 86.6%
- viability, T/C [8]: 62%
- viability, T/C (second compound 3.16 µM, first compound 0.000316 µM): 52.9%
- viability, T/C (second compound 3.16 µM, first compound 0.001 µM): 79%
- viability, T/C (second compound 3.16 µM, first compound 0.00316 µM): 40.8%
- viability, T/C (second compound 3.16 µM, first compound 0.01 µM): 63.1%
- viability, T/C (second compound 3.16 µM, first compound 0.0316 µM): 63.3%
- viability, T/C (second compound 3.16 µM, first compound 0.1 µM): 41.3%
- viability, T/C (second compound 10 µM, first compound 0.000316 µM): 44.5%
- viability, T/C (second compound 10 µM, first compound 0.001 µM): 54%
- viability, T/C (second compound 10 µM, first compound 0.00316 µM): 48.2%
- viability, T/C (second compound 10 µM, first compound 0.01 µM): 56.1%
- viability, T/C (second compound 10 µM, first compound 0.0316 µM): 54.6%
- viability, T/C (second compound 10 µM, first compound 0.1 µM): 32.2%
